Drawing on US20240383954A1, “PEPTIDE INHIBITORS OF INTERLEUKIN-23 RECEPTOR AND THEIR USE TO TREAT INFLAMMATORY DISEASES” (Janssen Biotech, Inc., priority 2020, published 2024), this text covers IC50 for 14 molecules.

The structures appear in SMILES notation. Positions of bridges follow the written chain, without caps; N, C: chain ends. Non-standard residues stand in square brackets, D forms with d. Residues, ends and D or L forms follow the SMILES beside them. *: point of attachment. Trp(7-Me) = Cc1cccc2c(C[C@H](N)C(=O)O)c[nH]c12; Phe(3R-Me) = C[C@H](c1ccccc1)[C@H](N)C(=O)O; 2Nal = N[C@@H](Cc1ccc2ccccc2c1)C(=O)O; AEF = NCCOc1ccc(C[C@H](N)C(=O)O)cc1; αMeF = C[C@](N)(Cc1ccccc1)C(=O)O; Cit = NC(=O)NCCC[C@H](N)C(=O)O; Pen = CC(C)(S)[C@H](N)C(=O)O; αMeK = C[C@](N)(CCCCN)C(=O)O; Ac5c = NC1(C(=O)O)CCCC1; Thp = NC1(C(=O)O)CCOCC1; Ac3c = NC1(C(=O)O)CC1; Aib = CC(C)(N)C(=O)O; X7 = Nc1cccc(N*)c1

The target of the assay is IL-23R (Homo sapiens, UniProt Q5VWK5). In words: cell-based. Particulars: PBMC pSTAT3 IC50 (nM), PBMCs from healthy donors, IL-23 5 ng/mL, 30 minutes, phosphorylated STAT3.
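Further: cryopreserved PBMCs stimulated at 37 °C in 5% CO2, then lysed, with phosphorylated STAT3 quantified in lysates using a phospho-STAT panel kit.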

IL-23R, sequence (Q5VWK5 24-629): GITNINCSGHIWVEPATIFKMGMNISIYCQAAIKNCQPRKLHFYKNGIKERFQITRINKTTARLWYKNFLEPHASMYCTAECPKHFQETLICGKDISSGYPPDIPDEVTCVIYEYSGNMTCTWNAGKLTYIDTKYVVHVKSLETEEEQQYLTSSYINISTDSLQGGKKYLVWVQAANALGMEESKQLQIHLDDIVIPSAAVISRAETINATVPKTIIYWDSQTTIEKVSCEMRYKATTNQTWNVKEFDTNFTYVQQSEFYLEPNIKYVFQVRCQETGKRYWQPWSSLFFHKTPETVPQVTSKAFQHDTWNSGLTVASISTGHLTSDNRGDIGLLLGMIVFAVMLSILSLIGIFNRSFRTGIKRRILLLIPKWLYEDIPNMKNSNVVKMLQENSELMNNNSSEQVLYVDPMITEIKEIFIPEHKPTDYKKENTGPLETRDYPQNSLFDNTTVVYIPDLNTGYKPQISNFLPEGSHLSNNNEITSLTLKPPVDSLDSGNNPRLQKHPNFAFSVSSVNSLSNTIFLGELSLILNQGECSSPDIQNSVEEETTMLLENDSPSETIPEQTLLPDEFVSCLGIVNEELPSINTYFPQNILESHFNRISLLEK

As to `CC(=O)NCCCC[C@@H]1NC(=O)[C@H](Cc2c[nH]c3c(C)cccc23)NC(=O)[C@H]([C@@H](C)O)NC(=O)[C@H](CC(N)=O)NC(=O)[C@@H](NC(=O)[C@@H](CCCNC(=N)N)NC(C)=O)C(C)(C)SSC(C)(C)[C@@H](C(=O)N[C@@H](Cc2ccc(OCCN)cc2)C(=O)N[C@@H](Cc2ccc3ccccc3c2)C(=O)NC2(C(=O)N[C@@H](CCC(=O)O)C(=O)N[C@@H](CC(N)=O)C(=O)N[C@@](C)(Cc3ccccc3)C(N)=O)CCCC2)NC1=O` [Compound 94, Ac-[(D)Arg]-[Pen]-N-T-[W(7-Me)]-[Lys(Ac)]-[Pen]-Phe[4-(2-aminoethoxy)]-[2-Nal]-[Acvc]-E-N-[a-MePhe]-NH2] (Ac-[dR][Pen]NT[Trp(7-Me)]K(Ac)[Pen][AEF][2Nal][Ac5c]EN[αMeF]-NH2; disulfide 2-7), 12 nM corresponded to half-maximal inhibition (IC50).

For the molecule `COc1ccc(C[C@H](NC(=O)[C@@H]2CSCC[C@H](NC(=O)[C@H](N)CCCNC(=N)N)C(=O)N[C@@H](CCC(N)=O)C(=O)N[C@@H]([C@@H](C)O)C(=O)N[C@@H](Cc3c[nH]c4ccccc34)C(=O)N[C@@H](CCC(N)=O)C(=O)N2)C(=O)N[C@@H](Cc2ccc3ccccc3c2)C(=O)NC2(C(=O)N[C@@H](CCC(=O)O)C(=O)N[C@@H](CC(N)=O)C(=O)NC3(C(N)=O)CCOCC3)CCOCC2)cc1` [Compound 22, [(D)Arg]-[Abu]-Q-T-W-Q-[Cys]-[Phe(4-OMe)]-[2-Nal]-[THP]-E-N-[THP]-NH2], inhibition was half-maximal at 22 nM (IC50).

On to `CC(=O)N[C@H](CCCNC(=N)N)C(=O)N[C@@H]1C(=O)N[C@@H](CCC(N)=O)C(=O)N[C@@H]([C@@H](C)O)C(=O)N[C@@H](Cc2c[nH]c3ccccc23)C(=O)N[C@@H](CCC(N)=O)C(=O)N[C@H](C(=O)N[C@@H](Cc2ccc(OCCN)cc2)C(=O)N[C@@H](Cc2ccc3ccccc3c2)C(=O)NC2(C(=O)N[C@@H](CCC(=O)O)C(=O)N[C@@H](CC(N)=O)C(=O)N[C@@H](CC(=O)Nc3cccc(N)c3)C(N)=O)CCOCC2)C(C)(C)SSC1(C)C` [Compound 130, Ac-[(D)Arg]-[Pen]-Q-T-W-Q-[Pen]-Phe[4-(2-aminoethoxy)]-[2-Nal]-[THP]-E-N-[(N-(3-aminophenyl))Asn]-NH2] (Ac-[dR][Pen]QTWQ[Pen][AEF][2Nal][Thp]END(X7)-NH2; disulfide 2-7), for which the IC50 stood at 9.2 nM.

On to `CC(=O)NCCCC[C@@H]1NC(=O)[C@H](Cc2c[nH]c3c(C)cccc23)NC(=O)[C@H]([C@@H](C)O)NC(=O)[C@H](CC(N)=O)NC(=O)[C@@H](NC(=O)[C@@H](CCCNC(=N)N)NC(C)=O)C(C)(C)SSC(C)(C)[C@@H](C(=O)N[C@@H](Cc2ccc(OCCN)cc2)C(=O)N[C@@H](Cc2ccc3ccccc3c2)C(=O)NC2(C(=O)N[C@@H](CCC(=O)O)C(=O)N[C@@H](CC(N)=O)C(=O)N[C@H](C(N)=O)[C@H](C)c3ccccc3)CCOCC2)NC1=O` [Compound 313, MeCO-r-Pen-N-T-7MeTrp-K(Ac)-Pen-AEF-2Nal-THP-E-N-bMePhe(S,R)---CONH2] (Ac-[dR][Pen]NT[Trp(7-Me)]K(Ac)[Pen][AEF][2Nal][Thp]EN[Phe(3R-Me)]-NH2; disulfide 2-7), for which half-maximal inhibition (IC50) was put at 21 nM.

As to `CC(=O)NCCCC[C@@H]1NC(=O)[C@H](Cc2c[nH]c3c(C)cccc23)NC(=O)[C@H]([C@@H](C)O)NC(=O)[C@H](CC(N)=O)NC(=O)[C@@H](NC(=O)[C@@H](CCCNC(=N)N)NC(C)=O)C(C)(C)SSC(C)(C)[C@@H](C(=O)N[C@@H](Cc2ccc(OCCN)cc2)C(=O)N[C@@H](Cc2ccc3ccccc3c2)C(=O)NC2(C(=O)N[C@@H](CCC(=O)O)C(=O)N[C@@H](CC(N)=O)C(=O)N[C@@](C)(Cc3ccccc3)C(N)=O)CCOCC2)NC1=O` [Compound 77, Ac-[(D)Arg]-[Pen]-N-T-[W(7-Me)]-[Lys(Ac)]-[Pen]-Phe[4-(2-aminoethoxy)]-[2-Nal]-[THP]-E-N-[a-MePhe]-NH2] (Ac-[dR][Pen]NT[Trp(7-Me)]K(Ac)[Pen][AEF][2Nal][Thp]EN[αMeF]-NH2; disulfide 2-7), the IC50 was found to be 6.4 nM.

For `CC(=O)N[C@H](CCCNC(=N)N)C(=O)N[C@H]1CCSC[C@@H](C(=O)N[C@@H](Cc2ccc(OCCN)cc2)C(=O)N[C@@H](Cc2ccc3ccccc3c2)C(=O)NC2(C(=O)N[C@@](C)(CCC(=O)O)C(=O)N[C@@H](CC(N)=O)C(=O)N[C@@H](Cc3ccc(C(N)=O)cc3)C(N)=O)CCOCC2)NC(=O)[C@H](CCC(N)=O)NC(=O)[C@H](Cc2c[nH]c3ccccc23)NC(=O)[C@H]([C@@H](C)O)NC(=O)[C@H](CCC(N)=O)NC1=O` [Compound 34, Ac-[(D)Arg]-[Abu]-Q-T-W-Q-[Cys]-Phe[4-(2-aminoethoxy)]-[2-Nal]-[THP]-[aMeGlu]-N-[Phe(4-CONH2)]-NH2], the IC50 came to 5.8 nM.

`CC(=O)NCCCC[C@@H]1NC(=O)[C@H](Cc2c[nH]c3c(C)cccc23)NC(=O)[C@H]([C@@H](C)O)NC(=O)[C@H](CC(N)=O)NC(=O)[C@@H](NC(C)=O)C(C)(C)SSC(C)(C)[C@@H](C(=O)N[C@@H](Cc2ccc(OCCN)cc2)C(=O)N[C@@H](Cc2ccc3ccccc3c2)C(=O)NC2(C(=O)N[C@@H](CCC(=O)O)C(=O)N[C@@H](CC(N)=O)C(=O)NC3(C(N)=O)CCOCC3)CC2)NC1=O` [Compound 317, MeCO-Pen-N-T-7MeW-K(Ac)-Pen-AEF-2Nal-Acpx-E-N-THP---CONH2] displayed an IC50 of 13 nM.

Consider `CC(=O)NCCCC[C@@H]1NC(=O)[C@H](Cc2c[nH]c3c(C)cccc23)NC(=O)[C@H]([C@@H](C)O)NC(=O)[C@H](CC(N)=O)NC(=O)[C@@H](NC(=O)[C@@H](CCCNC(=N)N)NC(C)=O)C(C)(C)SSC(C)(C)[C@@H](C(=O)N[C@@H](Cc2ccc(OCCNC(C)=O)cc2)C(=O)N[C@@H](Cc2ccc3ccccc3c2)C(=O)NC2(C(=O)N[C@@H](CCC(=O)O)C(=O)N[C@@H](CC(N)=O)C(=O)NC3(C(N)=O)CCOCC3)CC2)NC1=O` [Compound 308, MeCO-r-Pen-N-T-7MeW-K(Ac)-Pen-AEF(Ac)-2Nal-Acpx-E-N-THP-CONH2] (Ac-[dR][Pen]NT[Trp(7-Me)]K(Ac)[Pen][AEF](Ac)[2Nal][Ac3c]EN[Thp]-NH2; disulfide 2-7), for which the midpoint of inhibition, the IC50, lay at 8 nM.

In turn, `CC(=O)NCCCC[C@H](NC(=O)[C@](C)(CCCCN)NC(=O)[C@H](Cc1ccc2ccccc2c1)NC(=O)[C@H](Cc1ccc(OCCN)cc1)NC(=O)[C@H]1NC(=O)[C@H](CCCNC(N)=O)NC(=O)[C@H](Cc2c[nH]c3c(C)cccc23)NC(=O)[C@H]([C@@H](C)O)NC(=O)[C@H](CC(N)=O)NC(=O)[C@@H](NC(C)=O)C(C)(C)SSC1(C)C)C(=O)N[C@@H](CC(N)=O)C(=O)NC(C)(C)C(N)=O` [Compound 302, MeCO-Pen-N-T-7MeW-Cit-Pen-AEF-2Nal-aMeK-K(Ac)-N-Aib-CONH2] (Ac-[Pen]NT[Trp(7-Me)][Cit][Pen][AEF][2Nal][αMeK]K(Ac)N[Aib]-NH2; disulfide 1-6) registered an IC50 of 7 nM.

Molecule `CC(=O)NCCCC[C@@H]1NC(=O)[C@H](Cc2c[nH]c3c(C)cccc23)NC(=O)[C@H]([C@@H](C)O)NC(=O)[C@H](CC(N)=O)NC(=O)[C@@H](NC(C)=O)C(C)(C)SSC(C)(C)[C@@H](C(=O)N[C@@H](Cc2ccc(OCCN)cc2)C(=O)N[C@@H](Cc2ccc3ccccc3c2)C(=O)NC2(C(=O)N[C@@H](CCCCNC(=O)C(F)(F)F)C(=O)N[C@@H](CC(N)=O)C(=O)NC3(C(N)=O)CCOCC3)CCOCC2)NC1=O` [Compound 140, Ac-[Pen]-N-T-[W(7-Me)]-[Lys(Ac)]-[Pen]-Phe[4-(2-aminoethoxy)]-[2-Nal]-[THP]-[Lys(COCF3)]-N-[THP]-NH2] registered an IC50 of 2.6 nM.

As for `CCC(=O)NCCCC[C@H](NC(=O)C1(NC(=O)[C@H](Cc2ccc3ccccc3c2)NC(=O)[C@H](Cc2ccc(OCCN)cc2)NC(=O)[C@H]2NC(=O)[C@H](CCC(N)=O)NC(=O)[C@H](Cc3c[nH]c4ccccc34)NC(=O)[C@H]([C@@H](C)O)NC(=O)[C@H](CCC(N)=O)NC(=O)[C@@H](NC(=O)[C@@H](CCCNC(=N)N)NC(C)=O)C(C)(C)SSC2(C)C)CCOCC1)C(=O)N[C@@H](CC(N)=O)C(=O)NC1(C(N)=O)CCOCC1` [Compound 57, Ac-[(D)Arg]-[Pen]-Q-T-W-Q-[Pen]-Phe[4-(2-aminoethoxy)]-[2-Nal]-[THP]-[Lys(COEt)]-N-[THP]-NH2], the IC50 stood at 18 nM.

As for `CC(=O)N[C@H](CCCNC(=N)N)C(=O)N[C@H]1CCSC[C@@H](C(=O)N[C@@H](Cc2ccc(OCCN)cc2)C(=O)N[C@@H](Cc2ccc3ccccc3c2)C(=O)NC2(C(=O)N[C@@](C)(CCC(=O)O)C(=O)N[C@@H](CC(N)=O)C(=O)N[C@@H](Cc3ccc4ccccc4c3)C(N)=O)CCOCC2)NC(=O)[C@H](CCC(N)=O)NC(=O)[C@H](Cc2c[nH]c3ccccc23)NC(=O)[C@H]([C@@H](C)O)NC(=O)[C@H](CCC(N)=O)NC1=O` [Compound 35, Ac-[(D)Arg]-[Abu]-Q-T-W-Q-[Cys]-Phe[4-(2-aminoethoxy)]-[2-Nal]-[THP]-[aMeGlu]-N-[2-Nal]-NH2], the IC50 was 25 nM.

For `CC(=O)NCCCC[C@@H]1NC(=O)[C@H](Cc2c[nH]c3c(C)cccc23)NC(=O)[C@H]([C@@H](C)O)NC(=O)[C@H](CC(N)=O)NC(=O)[C@@H](NC(C)=O)C(C)(C)SSC(C)(C)[C@@H](C(=O)N[C@@H](Cc2ccc(OCCN)cc2)C(=O)N[C@@H](Cc2ccc3ccccc3c2)C(=O)N[C@@](C)(CCCCN)C(=O)N[C@@H](CCCCNC(C)=O)C(=O)N[C@@H](CC(N)=O)C(=O)NC2(C(N)=O)CCOCC2)NC1=O` [Compound 75, Ac-[Pen]-N-T-[W(7-Me)]-[Lys(Ac)]-[Pen]-Phe[4-(2-aminoethoxy)]-[2-Nal]-[a-MeLys]-[Lys(Ac)]-N-[THP]-NH2], half-maximal inhibition (IC50) was put at 8.9 nM.

`CC(=O)NCCCC[C@@H]1NC(=O)[C@H](Cc2c[nH]c3c(C)cccc23)NC(=O)[C@H]([C@@H](C)O)NC(=O)[C@H](CC(N)=O)NC(=O)[C@@H](NC(C)=O)C(C)(C)SSC(C)(C)[C@@H](C(=O)N[C@@H](Cc2ccc(OCCN)cc2)C(=O)N[C@@H](Cc2ccc3ccccc3c2)C(=O)N[C@@](C)(CCCCN)C(=O)N[C@@H](CCCCNC(C)=O)C(=O)N[C@@H](CC(N)=O)C(=O)N[C@@](C)(Cc2ccccc2)C(=O)N[C@H](Cc2ccc(O)cc2)C(N)=O)NC1=O` [Compound 100, Ac-[Pen]-N-T-[W(7-Me)]-[Lys(Ac)]-[Pen]-Phe[4-(2-aminoethoxy)]-[2-Nal]-[a-MeLys]-[Lys(Ac)]-N-[a-MePhe]-[(D)Tyr]-NH2] gave an IC50 of 21 nM.

For orientation: IC50 means the concentration needed to halve the response being measured. Lower therefore signals higher potency.
